Experimental data as given in patent US6927035B1, “Antiuracil monoclonal antibody” (Taiho Pharmaceutical Co., LTD, priority 1999, dated 2005).
Values after ≈ are worked out from the molar mass of the structure shown.

System: monoclonal antibody for psuedouridine
Assay: not given
Conditions: prior art antibody used for diagnosing a progressive cancer; cited from earlier work

SMILES | reactivity with the monoclonal antibody for pseudouridine
O=c1[nH]cc([C@@H]2O[C@H](CO)[C@@H](O)[C@H]2O)c(=O)[nH]1 [Pseudouridine] | 95-99%
O=c1cc[nH]c(=O)[nH]1 [Uracil] | 30-40%

System: monoclonal antibody of the present invention (CMU-1)
Assay: indirect competitive inhibition ELISA, cross reactivity test with monoclonal antibody CMU-1
Type: binding, mouse
Conditions: compound final concentration 0.5 mg/mL; uracil-BSA coated plate; absorbance at 415 nm
Description: Into a 96-well immunoplate, uracil-BSA complex (10 μg/mL as reduced to BSA) was placed at 50 μL/well, and allowed to stand overnight at 4° C. Subsequently, the immunoplate was washed 7 times with PBS containing 0.1% polyoxyethylene(20) sorbitan monolaurate (product of Wako Pure Chemical Industries, Ltd.; a product equivalent to Tween 20) (pH 7.3-7.7, product of Nissui Chemical; hereinafter referred to as PBS-T). Subsequently, 0.2% gelatin (200 μL) was added to each well, and the immunoplate was left for 2 hours at 37° C., or overnight at 4° C.
Subsequently, the immunoplate was washed five times with PBS-T, and one of the below-described samples (50 μL/well) was added to the immunoplate, which was then left for 1 hour at 37° C. • (i) a reaction mixture prepared by mixing the supernatant of the hybridoma culture obtained in Example 3 (hereinafter referred to as the hybridoma culture supernatant) (30 μL) and PBS (30 μL) for reaction at 37° C. for one hour; • a (ii) a reaction mixture obtained by mixing the hybridoma culture supernatant (30 μL) and a solution (30 μL) of uracil in PBS (uracil concentration: 1 mg/mL) for reaction at 37° C. for one hour; and • (iii) 1 μg/mL healthy mouse IgG (product of Biological). Subsequently, the wells were washed five times with PBS-T, and to each well was added alkaline-phosphatase-labeled (AP-labeled) anti-mouse-multivalent-immunoglobulin antibody (product of Sigma), which had been 1,000-fold diluted with 0.1% gelatin, (50 μL). Subsequently, the mixture was allowed to stand for one hour at 37° C. Subsequently, the wells were washed five times with PBS-T. A solution of disodium p-nitrophenylphosphate (product of Wako Chemical Industries, Ltd.) dissolved in substrate buffer (1 mg/mL) was added to each well (100 μL/well), and left for 30 minutes at 37° C. To the reaction mixtures, 2N NAOH (50 μL/well) was added and then mixed by use of a platemixer, to thereby stop the reaction. Absorbance at 415 nm was measured by use of a microplate reader.
The percent absorption was calculated by use of the following equation: [formula] wherein, • ODPBS: Absorbance measured by means of ELISA for a sample in which the hybridoma culture supernatant had been pre-treated only with PBS), • ODuracil: Absorbance measured by means of ELISA for a sample in which the hybridoma culture supernatant had been pre-treated with uracil in PBS), and • ODcontrol: Absorbance measured in ELISA of a sample treated only with heal thy mouse IgG).
By use of the hybridoma culture supernatant obtained from the above-described incubation, the reactivity of the monoclonal antibody, CMU-1, of the present invention was studied through the indirect competitive inhibition ELISA described in Example 4.
Specifically, an aliquot (50 μL) of uracil-BSA complex (10 μg/mL) was placed in each well of a 96-well immunoplate (Immunoplate I, product of Nunc), and allowed to stand overnight at 4° C. Each well was washed five times with PBS-T (200 μL) containing 0.1% Tween 20. Subsequently, to each well of the immunoplate, PBS (200 μL) containing 0.2% gelatin serving as a blocking agent was added, and the mixture was allowed to stand overnight at 4° C. Each well was again washed five times with PBS-T, to thereby prepare a plate.
Meanwhile, each of the follow samples: • (i) a mixture of the aforementioned hybridoma culture supernatant (30 μL) and PBS (30 μL); • (ii) a reaction mixture obtained by mixing the hybridoma culture supernatant (30 μL) and PBS (30 μL) containing uracil at a concentration of 0.03-1.0 mg/mL and causing reaction to proceed at 37° C. for one hour; and • (iii) […] healthy mouse IgG (product of Biologicals) was added to a 96-well plate to which the above antigen had been adsorbed (50 μL/well), and the plate was left to stand for one hour at 37° C. […]

SMILES | percent absorption (reactivity) with monoclonal antibody CMU-1
Nc1cc[nH]c(=O)n1 [Cytosine] | 15%
CC1CNC(=O)NC1=O (stereo not shown) [Dihydrothymine] | 22%
O=C1CCNC(=O)N1 [Dihydrouracil] | 8%
NC(=O)NCCC(=O)O [N-Carbamyl-β-alanine] | 8%
O=c1[nH]cc([C@@H]2O[C@H](CO)[C@@H](O)[C@H]2O)c(=O)[nH]1 [Pseudouridine] | 32%
Cc1c[nH]c(=O)[nH]c1=O [Thymine] | 91-97%
O=c1cc[nH]c(=O)[nH]1 [Uracil] | 95-96%

Same assay, conditions: monoclonal antibody CMU-1

SMILES | dose-dependent response of the antibody to the compound | ED30 (concentration when the percent absorption reached 30%)
Nc1cc[nH]c(=O)n1 [Cytosine] | no dose-dependent response | 
CC1CNC(=O)NC1=O (stereo not shown) [Dihydrothymine] | no dose-dependent response | 
O=C1CCNC(=O)N1 [Dihydrouracil] | no dose-dependent response | 
NC(=O)NCCC(=O)O [N-Carbamyl-β-alanine] | no dose-dependent response | 
O=c1[nH]cc([C@@H]2O[C@H](CO)[C@@H](O)[C@H]2O)c(=O)[nH]1 [Pseudouridine] | did exhibit dose-dependent response | 390 µg/mL (≈ 1600 µM)
Cc1c[nH]c(=O)[nH]c1=O [Thymine] | exhibited dose-dependent response | 15 µg/mL (≈ 119 µM)
O=c1cc[nH]c(=O)[nH]1 [Uracil] | exhibited dose-dependent response | 30 µg/mL (≈ 268 µM)

Same assay, conditions: monoclonal antibody CMU-1, FIG. 1

SMILES | concentration range in which the compound is detected
O=c1cc[nH]c(=O)[nH]1 [Uracil] | 0.005 to 0.5 mg/mL

Same assay, conditions: ratio of ED30 values, monoclonal antibody CMU-1

SMILES | binding ability relative to pseudouridine
Cc1c[nH]c(=O)[nH]c1=O [Thymine] | 26 times
O=c1cc[nH]c(=O)[nH]1 [Uracil] | 13 times

System: monoclonal antibody (SU-1) derived from hybridoma FERM BP-6141
Assay: indirect competitive inhibition ELISA, cross reactivity test with comparative monoclonal antibody SU-1
Type: binding
Conditions: compound final concentration 0.5 mg/mL; uracil-BSA coated plate; absorbance at 415 nm
Description: Meanwhile, each of the follow samples: • (i) a mixture of the aforementioned hybridoma culture supernatant (30 μL) and PBS (30 μL); • (ii) a reaction mixture obtained by mixing the hybridoma culture supernatant (30 μL) and PBS (30 μL) containing uracil at a concentration of 0.03-1.0 mg/mL and causing reaction to proceed at 37° C. for one hour; and • (iii) […] healthy mouse IgG (product of Biologicals) was added to a 96-well plate to which the above antigen had been adsorbed (50 μL/well), and the plate was left to stand for one hour at 37° C. Subsequently, the plate was washed five times with PBS-T, and to each well, aliquots (50 μL) of AP-labeled anti-mouse antibody (serving as the second antibody, product of Sigma), which had been 1,000-fold diluted with PBS containing 0.1% gelatin, were added, and the mixtures were allowed to stand for one hour at 37° C. Subsequently, each well was washed five times with PBS-T. An enzyme substrate buffer solution (p-nitrophenylphosphate, 1 mg/mL, pH 9.8) was added to each well (100 μl/well), and left to stand for 30 minutes at 37° C. To the reaction mixtures, 2N NaOH ([…]) was added, to thereby stop the reaction. Absorbance at 415 nm was measured by use of a microplate reader. For comparison, the same procedure was independently performed on hybridoma FERM BP-6141 described in PCT publication No. WO99/20748. The percent absorption was calculated from the above-described equation.
In a manner similar to that of Example 7, reactivity of the monoclonal antibody of the present invention with other compounds was investigated. Specifically, the procedure of step (ii) of Example 7 for investigating inhibition with uracil was repeated, except that pseudouridine, dihydrouracil, dihydrothymine, thymine, cytosine, or N-carbamyl-β-alanine (1 mg/mL) was used instead of uracil (1 mg/mL), to thereby investigate reactivity of the monoclonal antibody of the present invention with uracil compounds. As a comparative antibody, a monoclonal antibody (SU-1) derived from hybridoma “FERM BP-6141” described in WO 99/20748 was used.

SMILES | percent absorption (reactivity) with comparative monoclonal antibody SU-1
Nc1cc[nH]c(=O)n1 [Cytosine] | 15%
O=C1CCNC(=O)N1 [Dihydrouracil] | 2%
NC(=O)NCCC(=O)O [N-Carbamyl-β-alanine] | 91%
O=c1[nH]cc([C@@H]2O[C@H](CO)[C@@H](O)[C@H]2O)c(=O)[nH]1 [Pseudouridine] | 26%
Cc1c[nH]c(=O)[nH]c1=O [Thymine] | 5%
O=c1cc[nH]c(=O)[nH]1 [Uracil] | 41%
